Legend:
CRTH2 [1] = target: T1, CRTH2 (Homo sapiens, UniProt Q9Y5Y4); assay: Radioligand binding assay ([3H]PGD2, hCRTH2 HEK293 (EBNA) cell membranes); set-up: expressed in transfected cells; host or cells: HEK293 (EBNA) cells, membrane preparation; details: 1.5 nM [3H]PGD2, 10 μg hCRTH2 HEK293 (EBNA) membrane protein, 60 min at room temperature
T1 sequence (Q9Y5Y4 1-395): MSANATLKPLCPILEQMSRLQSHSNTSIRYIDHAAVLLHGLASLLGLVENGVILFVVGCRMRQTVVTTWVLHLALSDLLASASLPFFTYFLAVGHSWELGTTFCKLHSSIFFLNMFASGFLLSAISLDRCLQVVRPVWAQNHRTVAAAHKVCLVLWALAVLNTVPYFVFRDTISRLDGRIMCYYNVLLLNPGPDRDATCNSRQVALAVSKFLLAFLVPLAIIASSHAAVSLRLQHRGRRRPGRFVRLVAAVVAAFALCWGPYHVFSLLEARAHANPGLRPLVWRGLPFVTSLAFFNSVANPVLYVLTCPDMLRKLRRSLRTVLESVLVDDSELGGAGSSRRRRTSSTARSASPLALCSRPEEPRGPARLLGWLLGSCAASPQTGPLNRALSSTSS
Text: Human CRTH2 cDNA was amplified by PCR using a human urinary bladder cDNA library as a template and specific primers containing HindIII and BamHI restriction sites for cloning into the pCEP4 vector (Invitrogen). The vector construction is described in detail in Sawyer et al., Br. J. Pharmocol 2002, 137, 1163-72. The nucleotide sequence of the cloned cDNA was identical the previously reported hCRTH2 sequence (Nagata et al, 1999, J. Immunol. 162, 1278-1286).
HEK293 (EBNA) cells were transfected with the pCEP4-hCRTH2 construct using the calcium phosphate technique. Cells were maintained in culture at 37° C. in an atmosphere of 5% CO2 in Dulbecco's modified Eagle's F12 medium (Invitrogen), containing 10% heat-inactivated foetal calf serum (TerraCell International, Canada), 2 mM Glutamine, 100 units/ml of penicillin and 100 μg/ml streptomycin (Invitrogen). 48 hours after the transfection, cells were grown in presence of 300 μg/ml of Hygromycin B (Invitrogen) for 4 weeks and antibiotic resistant cells were amplified for cell membrane preparation.
Adherent HEK293 (EBNA) cells expressing hCRTH2 were cultured in 225 cm^2 cell culture flasks (Corning, USA) in 30 ml of medium. After two rinses of phosphate buffered saline (PBS), cells were harvested in 10 ml of PBS containing 1 mM EDTA, centrifuged at 500×g for 5 min at 4° C. and frozen at −80° C. The pellet was re-suspended in 50 mM Tris-HCl, pH 7.4, 2 mM EDTA, 250 mM Sucrose, containing protease inhibitor cocktail tablets, (Complete EDTA-free, Roche, Germany) and incubated 30 min at 4° C. Cells were disrupted by nitrogen cavitation (Parr Instruments, USA) at 4° C. (800 p.s.i. for 30 min), and centrifuged at 500×g for 10 min at 4° C. Pellet containing nuclei and cellular debris was discarded and supernatant was centrifuged 60 min at 4° C. at 45000×g. Membrane pellet was re-suspended in storage buffer (10 mM HEPES/KOH pH 7.4, 1 mM EDTA, 250 mM sucrose, protease inhibitor cocktail tablets) using Dounce homogenization and frozen in liquid nitrogen, and stored at −80° C.
The inhibitory activity can be investigated by a radioligand binding assay (Sawyer et al., Br. J. Pharmocol 2002, 137, 1163-72). The radioligand binding assay was performed at room temperature in binding buffer (10 mM HEPES/KOH pH […], with protease inhibitor cocktail tablets), containing 1.5 nM [^3H]PGD2 (Amersham, 156 Cie/mmol), and 10 μg of hCRTH2 HEK293 (EBNA) cell membrane protein in a final volume of 100 μl in 96 well plates (Corning, USA). Non-specific binding was determined in the presence of 1 μM PGD2 (Cayman, USA). Competing spiro-indolinones were diluted in dimethylsulphoxide so that the total volume of dimethylsulfoxide was kept constant at 1% dimethylsulphoxide (Me2SO) Serial dilutions of 100 μM and […] were prepared. 10 μl each of these spiro-indolinone stock solutions were added. Incubation (60 min at room temperature) was terminated by rapid filtration through 96 wells hydrophobic GF/C Unifilter plates (Whatman, USA). Filters were washed twice with 250 μl of Tris-HCl pH 7.4, 10 mM MnCl2, and residual radioligand bound to the filters was mixed to 100 μl of liquid scintillation cocktail (Optiphase Supermix, Perkin Elmer, USA) and binding activity was determined by counting residual radioligand using a 1450 Micro-beta scintillation counter (Wallac, UK). The following representative compounds were tested. […]

CRTH2 [2] = target: T1, CRTH2; assay: Determination of Ki (radioligand binding assay, equilibrium competition against [3H]PGD2); set-up: expressed in transfected cells; host or cells: HEK293 (EBNA) cells, membrane preparation; details: average of at least three independent dose response experiments
Experimental: The inhibitory activity can be investigated by a radioligand binding assay (Sawyer et al., Br. J. Pharmocol 2002, 137, 1163-72). The radioligand binding assay was performed at room temperature in binding buffer (10 mM HEPES/KOH pH […], with protease inhibitor cocktail tablets), containing 1.5 nM [^3H]PGD2 (Amersham, 156 Cie/mmol), and 10 μg of hCRTH2 HEK293 (EBNA) cell membrane protein in a final volume of 100 μl in 96 well plates (Corning, USA). Non-specific binding was determined in the presence of 1 μM PGD2 (Cayman, USA). Competing spiro-indolinones were diluted in dimethylsulphoxide so that the total volume of dimethylsulfoxide was kept constant at 1% dimethylsulphoxide (Me2SO) Serial dilutions of 100 μM and […] were prepared. 10 μl each of these spiro-indolinone stock solutions were added. Incubation (60 min at room temperature) was terminated by rapid filtration through 96 wells hydrophobic GF/C Unifilter plates (Whatman, USA). Filters were washed twice with 250 μl of Tris-HCl pH 7.4, 10 mM MnCl2, and residual radioligand bound to the filters was mixed to 100 μl of liquid scintillation cocktail (Optiphase Supermix, Perkin Elmer, USA) and binding activity was determined by counting residual radioligand using a 1450 Micro-beta scintillation counter (Wallac, UK). The following representative compounds were tested. All inhibited the binding of PGD2 to CRTH2 by more than 70%. • (1′-benzyl-5-chloro-2,2′,5′-trioxospiro[indole-3,3′-pyrrolidin]-1(2H)-yl)acetic acid • (1′-benzyl-5-fluoro-2,2′,5′-trioxospiro[indole-3,3′-pyrrolidin]-1(2H)-yl)acetic acid • 4-(1′-allyl-5-chloro-2,2′,5′-trioxospiro[indole-3,3′-pyrrolidin]-1(2H)-yl)butanoic acid • [5-chloro-1′-(2-methoxyethyl)-2,2′,5′-trioxospiro[indole-3,3′-pyrrolidin]-1(2H)-yl]acetic acid • 4-(1′-benzyl-5-chloro-2,2′,5′-trioxospiro[indole-3,3′-pyrrolidin]-1(2H)-yl)butanoic acid • (1′-benzyl-5-methoxy-2,2′,5′-trioxospiro[indole-3,3′-pyrrolidin]-1(2H)-yl)acetic acid • [5-fluoro-1′-[(2-methoxyethoxy)methyl]-2,2′,5′-trioxospiro[indole-3,3′-pyrrolidin]-1(2H)-yl]acetic acid • 4-(1′-allyl-5-fluoro-2,2′,5′-trioxospiro[indole-3,3′-pyrrolidin]-1(2H)-yl)butanoic acid • 4-(1′-benzyl-5-fluoro-2,2′,5′-trioxospiro[indole-3,3′-pyrrolidin]-1(2H)-yl)butanoic acid
Ki values were determined by equilibrium competition binding experiments against [^3H]PGD2. Ki values were calculated from the formula below and represent the average of at least three independent dose response experiments. The Ki values give the ligand concentrations necessary to inhibit 50% of the binding of [^3H]PGD2 to CRTH2. Ki=IC50/(1+[Concentration of Ligand]/Kd)]
All experiments were performed in 96 well plates, in a final volume of 100 μl according to the above described filtration assay. The concentration of membranes and 3 [H]PGD2, as well as the positive and negative controls were identical to the conditions described above.

[3] = test system: DK-PGD2-induced vascular leakage; assay: Model of DK-PGD2-induced vascular leakage in mice; type: in vivo, Balb/c mice; details: Mus musculus, 1.5 h; dose of 30 mg/kg; 30 min before DK-PGD2 challenge; Evans blue extravasation
Experimental: This test is described in Takeshita et al. (2004). Balb/c mice (Elevage Janvier) (8 week old) received an intradermal injection of DK-PGD2 (10 μg in 30 μl) on their shaved backs and an intravenous injection of Evans blue solution (25 mg/kg) 30 min after administration of the test molecules (spiro derivative). Ninety minutes after the challenge, the animals were sacrificed. The skin of the back was removed and blood was sampled. The extravasated dye (punch diameter: 5 mm) was extracted by 0.2 ml of formamide and was quantified by fluorescence (E1: 585 nm, E2: 660 nm). The Evans Blue extravasation ratio was expressed as the following: skin/serum×1000.

Row | Compound | inhibition (CRTH2 [1]) | Ki (CRTH2 [2]) | inhibition in vivo at 30 mg/kg [3]
1 | C=CCN1C(=O)CC2(C1=O)C(=O)N(CCCC(=O)O)c1ccc(Cl)cc12 (stereo not drawn) [4-(1′-allyl-5-chloro-2,2′,5′-trioxospiro[indole-3,3′-pyrrolidin]-1(2H)-yl)butanoic acid] | > 70% | – | –
2 | C=CCN1C(=O)CC2(C1=O)C(=O)N(CCCC(=O)O)c1ccc(F)cc12 (stereo not drawn) [4-(1′-allyl-5-fluoro-2,2′,5′-trioxospiro[indole-3,3′-pyrrolidin]-1(2H)-yl)butanoic acid] | > 70% | – | –
3 | O=C(O)CN1C(=O)C2(NC(=O)N(Cc3ccccc3F)C2=O)c2cc(Cl)ccc21 (stereo not drawn) [Compound 108, [5′-chloro-1-(2-fluorobenzyl)-2,2′,5-trioxospiro[imidazolidine-4,3′-indol]-1′(2′H)-yl]acetic acid] | – | 4.8 nM | –
4 | O=C(O)CN1C(=O)[C@]2(CC(=O)N(Cc3cc(Cl)ccc3F)C2=O)c2cc(Cl)ccc21 [Compound 111, (3S)-[5-chloro-1′-(2-fluoro-5-chlorobenzyl)-2,2′,5′-trioxospiro[indole-3,3′-pyrrolidin]-1(2H)-yl]acetic acid] | – | 470 nM | 65%
5 | O=C(O)CN1C(=O)[C@@]2(CC(=O)N(Cc3cc(Cl)ccc3F)C2=O)c2cc(Cl)ccc21 [Compound 112, (3R)-[5-chloro-1′-(2-fluoro-5-chlorobenzyl)-2,2′,5′-trioxospiro[indole-3,3′-pyrrolidin]-1(2H)-yl]acetic acid] | – | 150 nM | 61%
6 | O=C(O)CN1C(=O)C2(CC(=O)N(Cc3ccccc3)C2)c2cc(Cl)ccc21 (stereo not drawn) [Compound 113, (1′-benzyl-5-chloro-2,5′-dioxospiro[indole-3,3′-pyrrolidin]-1(2H)-yl)acetic acid] | – | 630 nM | 55%
7 | COCCN1C(=O)CC2(C1=O)C(=O)N(CC(=O)O)c1ccc(Cl)cc12 (stereo not drawn) [[5-chloro-1′-(2-methoxyethyl)-2,2′,5′-trioxospiro[indole-3,3′-pyrrolidin]-1(2H)-yl]acetic acid] | > 70% | – | –
8 | COCCOCN1C(=O)CC2(C1=O)C(=O)N(CC(=O)O)c1ccc(F)cc12 (stereo not drawn) [[5-fluoro-1′-[(2-methoxyethoxy)methyl]-2,2′,5′-trioxospiro[indole-3,3′-pyrrolidin]-1(2H)-yl]acetic acid] | > 70% | – | –

Continued, in another order:

Row | inhibition (CRTH2 [1]) | Ki (CRTH2 [2]) | Compound | inhibition in vivo at 30 mg/kg [3]
9 | > 70% | – | O=C(O)CCCN1C(=O)C2(CC(=O)N(Cc3ccccc3)C2=O)c2cc(Cl)ccc21 (stereo not drawn) [4-(1′-benzyl-5-chloro-2,2′,5′-trioxospiro[indole-3,3′-pyrrolidin]-1(2H)-yl)butanoic acid] | –
10 | > 70% | – | O=C(O)CCCN1C(=O)C2(CC(=O)N(Cc3ccccc3)C2=O)c2cc(F)ccc21 (stereo not drawn) [4-(1′-benzyl-5-fluoro-2,2′,5′-trioxospiro[indole-3,3′-pyrrolidin]-1(2H)-yl)butanoic acid] | –
11 | > 70% | – | O=C(O)CN1C(=O)C2(CC(=O)N(Cc3ccccc3)C2=O)c2cc(F)ccc21 (stereo not drawn) [(1′-benzyl-5-fluoro-2,2′,5′-trioxospiro[indole-3,3′-pyrrolidin]-1(2H)-yl)acetic acid] | –
12 | > 70% | – | COc1ccc2c(c1)C1(CC(=O)N(Cc3ccccc3)C1=O)C(=O)N2CC(=O)O (stereo not drawn) [(1′-benzyl-5-methoxy-2,2′,5′-trioxospiro[indole-3,3′-pyrrolidin]-1(2H)-yl)acetic acid] | –
13 | – | 28 nM | O=C(O)CN1C(=O)[C@@]2(CC(=O)N(Cc3ccccc3F)C2=O)c2cc(Cl)ccc21 [Compound 109, (3R)-[5-chloro-1′-(2-fluorobenzyl)-2,2′,5′-trioxospiro[indole-3,3′-pyrrolidin]-1(2H)-yl]acetic acid] | 38%
14 | – | 8.4 nM | O=C(O)CN1C(=O)[C@]2(CC(=O)N(Cc3ccccc3F)C2=O)c2cc(Cl)ccc21 [Compound 110, (3S)-[5-chloro-1′-(2-fluorobenzyl)-2,2′,5′-trioxospiro[indole-3,3′-pyrrolidin]-1(2H)-yl]acetic acid] | –

— patent US8236963B2, “Tricyclic spiro derivatives as CRTH2 modulators” (Merck Serono SA, priority 2005, dated 2012)
